Results published in ChEMBL document CHEMBL3797190, “Development of 3,5-Dinitrobenzylsulfanyl-1,3,4-oxadiazoles and Thiadiazoles as Selective Antitubercular Agents Active Against Replicating and Nonreplicating Mycobacterium tuberculosis” (J Med Chem, 2016).
pIC50: −log10 of the molar value. ≈ marks a conversion by molar mass, not a printed value.

Tests used:
[1] = Cytotoxicity against human HuH7 cells assessed as cell viability after 24 hrs by MTS assay; format: cell-based; details: Huh-7, 24 h
HeLa [2] = test: Cytotoxicity against human HeLa cells assessed as cell viability after 24 hrs by MTS assay; format: cell-based
[3] = Cytotoxicity against MDCK2-MDR1 cells assessed as cell viability after 48 hrs by MTS assay; format: ADME, cell-based; details: Canis lupus familiaris, MDCK-II
[4] = Cytotoxicity against human HeLa cells assessed as cell viability at 20 uM after 24 hrs by MTS assay; format: cell-based; details: read-out: Activity
[5] = Cytotoxicity against human HuH7 cells assessed as cell viability at 20 uM after 48 hrs by MTS assay; format: cell-based, Huh-7; details: read-out: Activity
[6] = Cytotoxicity against human HuH7 cells assessed as cell viability at 20 uM after 24 hrs by MTS assay; format: cell-based, Huh-7; details: read-out: Activity
[7] = Cytotoxicity against MDCK2-MDR1 cells assessed as cell viability at 20 uM after 48 hrs by MTS assay; format: ADME, cell-based, Canis lupus familiaris, MDCK-II; details: dog, read-out: Activity
Mycobacterium kansasii [8] = test: Antimycobacterial activity against Mycobacterium kansasii CNCTC My 6509/96 after 21 days by microdilution method; format: functional; details: CNCTC My 6509/96, 504 h
[9] = Cytotoxicity against MDCK2-MDR1 cells assessed as cell viability at 20 uM after 24 hrs by MTS assay; format: ADME, cell-based, Canis lupus familiaris, MDCK-II; details: dog, read-out: Activity
[10] = Cytotoxicity against MDCK2-MDR1 cells assessed as cell viability after 24 hrs by MTS assay; format: ADME, cell-based; details: Canis lupus familiaris, MDCK-II
[11] = Cytotoxicity against human HeLa cells assessed as cell viability at 20 uM after 48 hrs by MTS assay; format: cell-based; details: read-out: Activity
Salmonella typhimurium [12] = test: Mutagenic activity in Salmonella typhimurium TA100 assessed as reverse mutation at 30 uM by Ames test; format: toxicity, organism-based; details: salmonella enterica subsp. enterica serovar typhimurium
Mycobacterium kansasii [13] = test: Antimycobacterial activity against Mycobacterium kansasii CNCTC My 235/80 after 7 days by microdilution method; format: functional; details: CNCTC My 235/80, 168 h
Mycobacterium kansasii [14] = test: Antimycobacterial activity against Mycobacterium kansasii CNCTC My 6509/96 after 7 days by microdilution method; format: functional; details: CNCTC My 6509/96, 168 h
Mycobacterium avium [15] = test: Antimycobacterial activity against Mycobacterium avium CNCTC My 330/88 after 21 days by microdilution method; format: functional; details: CNCTC My 330/88, 504 h
Mycobacterium kansasii [16] = test: Antimycobacterial activity against Mycobacterium kansasii CNCTC My 235/80 after 14 days by microdilution method; format: functional; details: CNCTC My 235/80, 336 h
[17] = system: Mycobacterium tuberculosis; test: Antimycobacterial activity against Mycobacterium tuberculosis CNCTC My 331/88 after 14 days by microdilution method; format: functional; details: CNCTC My 331/88, 336 h
[18] = system: Staphylococcus epidermidis; test: Antibacterial activity against Staphylococcus epidermidis H 6966/08 after 24 to 48 hrs by broth microdilution method; format: functional
Nakaseomyces glabratus = test: Antifungal activity against Candida glabrata 20/I after 24 to 48 hrs by broth microdilution method; format: functional
Candida albicans = test: Antifungal activity against Candida albicans ATCC 44859 after 24 to 48 hrs by broth microdilution method; format: functional
Staphylococcus aureus [19] = test: Antibacterial activity against Staphylococcus aureus ATCC 6538 after 24 to 48 hrs by broth microdilution method; format: functional
Klebsiella pneumoniae [20] = test: Antibacterial activity against ESBL producing Klebsiella pneumoniae J 14368/08 after 24 to 48 hrs by broth microdilution method; format: functional
Mycobacterium kansasii [21] = test: Antimycobacterial activity against Mycobacterium kansasii CNCTC My 6509/96 after 14 days by microdilution method; format: functional; details: CNCTC My 6509/96, 336 h
Candida tropicalis = test: Antifungal activity against Candida tropicalis 156 after 24 to 48 hrs by broth microdilution method; format: functional
[22] = Cytotoxicity against human HuH7 cells assessed as cell viability after 48 hrs by MTS assay; format: cell-based; details: Huh-7, 48 h
[23] = system: Trichophyton mentagrophytes; test: Antifungal activity against Trichophyton mentagrophytes 445 after 72 to 120 hrs by broth microdilution method; format: functional
HeLa [24] = test: Cytotoxicity against human HeLa cells assessed as cell viability after 48 hrs by MTS assay; format: cell-based
Mycobacterium avium [25] = test: Antimycobacterial activity against Mycobacterium avium CNCTC My 330/88 after 14 days by microdilution method; format: functional; details: CNCTC My 330/88, 336 h
Trichosporon asahii = test: Antifungal activity against Trichosporon asahii 1188 after 24 to 48 hrs by broth microdilution method; format: functional
[26] = system: Mycobacterium tuberculosis; test: Antimycobacterial activity against Mycobacterium tuberculosis CNCTC My 331/88 after 21 days by microdilution method; format: functional; details: CNCTC My 331/88, 504 h
Mycobacterium kansasii [27] = test: Antimycobacterial activity against Mycobacterium kansasii CNCTC My 235/80 after 21 days by microdilution method; format: functional; details: CNCTC My 235/80, 504 h
Lichtheimia corymbifera = test: Antifungal activity against Absidia corymbifera 272 after 24 to 48 hrs by broth microdilution method; format: functional
Enterococcus faecalis = test: Antibacterial activity against Enterococcus faecalis J 14365/08 after 24 to 48 hrs by broth microdilution method; format: functional
Pseudomonas aeruginosa = test: Antibacterial activity against Pseudomonas aeruginosa ATCC 9027 after 24 to 48 hrs by broth microdilution method; format: functional
Aspergillus fumigatus = test: Antifungal activity against Aspergillus fumigatus 231 after 24 to 48 hrs by broth microdilution method; format: functional
Staphylococcus aureus [28] = test: Antibacterial activity against methicillin-resistant Staphylococcus aureus H 5996/08 after 24 to 48 hrs by broth microdilution method; format: functional
Pichia kudriavzevii = test: Antifungal activity against Candida krusei E28 after 24 to 48 hrs by broth microdilution method; format: functional
Klebsiella pneumoniae [29] = test: Antibacterial activity against Klebsiella pneumoniae D 11750/08 after 24 to 48 hrs by broth microdilution method; format: functional
Escherichia coli = test: Antibacterial activity against Escherichia coli ATCC 8739 after 24 to 48 hrs by broth microdilution method; format: functional
Salmonella typhimurium [30] = test: Mutagenic activity in Salmonella typhimurium TA98 assessed as reverse mutation at 30 uM by Ames test; format: toxicity, organism-based; details: salmonella enterica subsp. enterica serovar typhimurium

Row | SMILES | pIC50 [1] | pIC50 (HeLa [2]) | pIC50 [3] | viability at 24 h, 20 µM [4] [%] | viability at 48 h, 20 µM [5] [%] | viability at 24 h, 20 µM [6] [%] | viability at 48 h, 20 µM [7] [%] | MIC99 (Mycobacterium kansasii [8]) [µM] | viability at 24 h, 20 µM [9] [%] | pIC50 [10] | viability at 48 h, 20 µM [11] [%] | MIC99 (Mycobacterium kansasii [13]) [µM] | MIC99 (Mycobacterium kansasii [14]) [µM] | MIC99 (Mycobacterium avium [15]) [µM] | MIC99 (Mycobacterium kansasii [16]) [µM] | MIC99 [17] [µM] | MIC95 [18] [µM] | MIC80 (Nakaseomyces glabratus) [µM] | MIC80 (Candida albicans) [µM] | MIC95 (Staphylococcus aureus [19]) [µM] | further results
1 | COc1ccc(-c2nnc(SCc3cc([N+](=O)[O-])cc([N+](=O)[O-])c3)o2)cc1 | < 4.70 | < 4.70 | 4.97 | 83.9 | 34.1 | 91.6 | 14.5 | 0.5 (≈ 0.194 µg/mL) | 80.6 | < 4.70 | 37.3 |  |  |  |  |  |  |  |  |  | 
2 | [N-]=[N+]=[N-].[Na+] [SODIUM AZIDE] |  |  |  |  |  |  |  |  |  |  |  |  |  |  |  |  |  |  |  |  | Activity (Salmonella typhimurium [12]): Toxic
3 | COc1ccc(-c2nnc(SCc3cc([N+](=O)[O-])cc([N+](=O)[O-])c3)s2)cc1 | < 4.70 | < 4.70 | < 4.70 | 88 | 84.2 | 95.4 | 60 | 1 (≈ 0.404 µg/mL) | 101 | < 4.70 | 27.1 | 0.25 (≈ 0.101 µg/mL) | 0.25 (≈ 0.101 µg/mL) | 16 (≈ 6.47 µg/mL) | 1 (≈ 0.404 µg/mL) | 0.125 (≈ 0.0506 µg/mL) | > 125 | > 125 | > 125 | > 125 | MIC95 (Klebsiella pneumoniae [20]): > 125 µM; MIC99 (Mycobacterium kansasii [21]): 1 µM (≈ 0.404 µg/mL); MIC80 (Candida tropicalis): > 125 µM; pIC50 [22]: < 4.70; MIC50 [23]: > 125 µM; pIC50 (HeLa [24]): 5.36; MIC99 (Mycobacterium avium [25]): 8 µM (≈ 3.24 µg/mL); MIC80 (Trichosporon asahii): > 125 µM; MIC99 [26]: 0.125 µM (≈ 0.0506 µg/mL); MIC99 (Mycobacterium kansasii [27]): 1 µM (≈ 0.404 µg/mL); MIC50 (Lichtheimia corymbifera): > 125 µM; MIC95 (Enterococcus faecalis): > 125 µM; MIC95 (Pseudomonas aeruginosa): > 125 µM; MIC50 (Aspergillus fumigatus): > 125 µM; MIC95 (Staphylococcus aureus [28]): > 125 µM; MIC80 (Pichia kudriavzevii): > 125 µM; MIC95 (Klebsiella pneumoniae [29]): > 125 µM; MIC95 (Escherichia coli): > 125 µM
4 | COc1cccc(-c2nnc(SCc3cc([N+](=O)[O-])cc([N+](=O)[O-])c3)o2)c1 | < 4.70 | < 4.70 |  | 74.2 | 47 | 89.6 | 10.5 | 1 (≈ 0.388 µg/mL) | 105 | < 4.70 | 16.4 | 0.125 (≈ 0.0485 µg/mL) | 0.125 (≈ 0.0485 µg/mL) | 16 (≈ 6.21 µg/mL) | 0.25 (≈ 0.0971 µg/mL) | 0.125 (≈ 0.0485 µg/mL) | > 125 | > 125 | > 125 | > 125 | Activity (Salmonella typhimurium [12]): Non-toxic; Activity (Salmonella typhimurium [30]): Non-toxic; MIC95 (Klebsiella pneumoniae [20]): > 125 µM; MIC99 (Mycobacterium kansasii [21]): 0.5 µM (≈ 0.194 µg/mL); MIC80 (Candida tropicalis): > 125 µM; MIC50 [23]: > 125 µM; pIC50 (HeLa [24]): 5.39; MIC99 (Mycobacterium avium [25]): 16 µM (≈ 6.21 µg/mL); MIC80 (Trichosporon asahii): > 125 µM; MIC99 [26]: 0.125 µM (≈ 0.0485 µg/mL); MIC99 (Mycobacterium kansasii [27]): 0.5 µM (≈ 0.194 µg/mL); MIC50 (Lichtheimia corymbifera): > 125 µM; MIC95 (Enterococcus faecalis): > 125 µM; MIC95 (Pseudomonas aeruginosa): > 125 µM; MIC50 (Aspergillus fumigatus): > 125 µM; MIC95 (Staphylococcus aureus [28]): > 125 µM; MIC80 (Pichia kudriavzevii): > 125 µM; MIC95 (Klebsiella pneumoniae [29]): > 125 µM; MIC95 (Escherichia coli): > 125 µM
5 | O=[N+]([O-])c1ccc(CSc2nnc(-c3ccccc3)o2)c([N+](=O)[O-])c1 | < 4.70 | < 4.70 | < 4.70 | 97.7 | 92.8 | 99.5 | 73.3 | 8 (≈ 2.87 µg/mL) | 69.6 | < 4.70 | 113 | 4 (≈ 1.43 µg/mL) | 2 (≈ 0.717 µg/mL) | > 16 | 8 (≈ 2.87 µg/mL) | 2 (≈ 0.717 µg/mL) | > 125 | > 125 | > 125 | > 125 | Activity (Salmonella typhimurium [30]): Toxic; MIC95 (Klebsiella pneumoniae [20]): > 125 µM; MIC99 (Mycobacterium kansasii [21]): 8 µM (≈ 2.87 µg/mL); MIC80 (Candida tropicalis): > 125 µM; pIC50 [22]: < 4.70; MIC50 [23]: > 125 µM; pIC50 (HeLa [24]): < 4.70; MIC99 (Mycobacterium avium [25]): > 16 µM; MIC80 (Trichosporon asahii): > 125 µM; MIC99 [26]: 4 µM (≈ 1.43 µg/mL); MIC99 (Mycobacterium kansasii [27]): 16 µM (≈ 5.73 µg/mL); MIC50 (Lichtheimia corymbifera): > 125 µM; MIC95 (Enterococcus faecalis): > 125 µM; MIC95 (Pseudomonas aeruginosa): > 125 µM; MIC50 (Aspergillus fumigatus): > 125 µM; MIC95 (Staphylococcus aureus [28]): > 125 µM; MIC80 (Pichia kudriavzevii): > 125 µM; MIC95 (Klebsiella pneumoniae [29]): > 125 µM; MIC95 (Escherichia coli): > 125 µM
